Measured values reported in patent US20150099802A1, “SELECTIVE TUMOR TREATMENT” (SUCAMPO AG, priority 2013, published 2015).

Assays:
Assay type in all cases: cell-based
[1] = tested on: Non-transfected colon adenocarcinoma LS174T cells; assay: Growth of non-transfected LS174T colon adenocarcinoma cells (cell counting); conditions: 100 nM lubiprostone, fresh every 24 hr; cells counted at 0, 24, 48, 72 and 96 hr; non-transfected cells (low 15-PGDH); FIG. 1A
Procedure: (§1) Approximately half of colon cancers have a low level of NAD^+-linked 15-hydroxyprostaglandin dehydrogenase (NAD^+-15-PGDH). It was tested whether lubiprostone affected the growth of LS174T colon […] cells, which are known to have a low level of 15-PGDH. LS174T cells (ATCC #CL-188) were grown in Eagle's Minimum Essential Medium (ATCC #30-2003) containing 10% Fetal Bovine Serum (ATCC #30-2020) at 37° C. Human PGDH (hPGDH) was expressed in LS174T cells using pCMV6-Entry Vector. Both the human cDNA clone (#RC204160) and the Precision shuttle vector (#PS100001) were from OriGene Technologies, Rockville, Md. LS174T cells were transfected with hPGDH cDNA using Lipofectamine and selected using G418 (200 μg/ml). LS174T cells±hPGDH (+hPGDH or + vector alone, mock) were grown in 35 mm petri dishes (0.5×10^4 cells/dish) in triplicate. Confluent non-transfected cells were plated in 6 well dishes (1×10^4 cells/well) in triplicate. Cultures were grown to 40% confluence and were then treated with either 0.1% EtOH-0.01% DMSO or 100 nM lubiprostone. Media were changed and fresh EtOH-DMSO or lubiprostone was added every 24 hr. Cell growth was monitored by directly counting the cells in a randomly chosen field using a cell cytometer at 0, 24, 48, 72 and 96 hr.

[2] = tested on: hPGDH-transfected colon adenocarcinoma LS174T cells; assay: Growth of hPGDH-transfected LS174T colon adenocarcinoma cells (cell counting); conditions: 100 nM lubiprostone, fresh every 24 hr, cells counted at 0-96 hr, FIG. 1B
Procedure: as §1

[3] = tested on: Mock-transfected colon adenocarcinoma LS174T cells; assay: Growth of mock-transfected LS174T colon adenocarcinoma cells (cell counting); conditions: 100 nM lubiprostone, fresh every 24 hr; cells counted at 0-96 hr; vector-alone (mock) LS174T cells; FIG. 1C
Procedure: as §1

## CCCCC(F)(F)[C@@]1(O)CC[C@H]2[C@@H](CC(=O)[C@@H]2CCCCCCC(=O)O)O1 [lubiprostone, (−)-7-[(2R,4aR,5R,7aR)-2-(1,1-difluoropentyl)-2-hydroxy-6-oxooctahydrocyclopenta[b]pyran-5-yl]heptanoic acid]
[1]
  LS174T cell growth: slowed or stopped
[2]
  lubiprostone inhibition of cell growth after transfection with 15-OH PGDH: prevented lubiprostone inhibition of cell growth
[3]
  effect of mock transfection on lubiprostone inhibition of cell growth: Mock transfection had no effect
